Test results: patent US20160177395A1, “BIOMARKERS FOR THE PREDICTION OF RENAL INJURY” (priority 2007, published 2016)
Where “and” joins values, the source holds several entries; their conditions need not be identical. Identical values can stand only once.

Experiments:
rat kidney samples = assay: Random-Forest classifiers applied to un-labeled samples of T1, T2, T3 and control (Table 30); conditions: for Average 'Toxic' (%): average of the two classifiers
Description: To validate the optimal signature for classification of renal toxicity of a compound after five days of application a test of the signatory polynucleotide/gene expression in rat kidney samples consisting of tissues from rats exposed to three drug compounds and a single control group was carried out (Teva Pharmaceutical Industries, IL).
The two optimal classifiers (signatures described in Tables 26 and 27) were applied to the qRT-PCR reads of the un-labeled samples and their calls was used to assign a level of toxicity to each group and, eventually, each compound.
The classifiers described in Tables 26 and 27, were used for testing the un-labeled samples. Both classifiers were applied to the measurements of each sample, used the 30% bound from above, and the number of samples pass that bound in each group were summarized.

[1] = test system: kidney tissues of treated or untreated rats; assay: Real-time qRT-PCR of signature amplicons, validation stage, labeled and un-labeled samples (Table 23); conditions: for H31883_DB71_seg13 normalized qRT-PCR result / MUSCYCG1R_DB81_seg19-20 normalized qRT-PCR result / W41270_DB81_seg11 normalized qRT-PCR result: un-labeled sample, one line per animal; for AI045075_DB71_seg6 normalized qRT-PCR expression (Interferon stimulated exonuclease 20 (ISG20) transcript) / H31883_DB71_seg13 normalized qRT-PCR expression (Cyclin-G1 (CCNG1) transcript) / MUSCYCG1R_DB81_seg19-20 normalized qRT-PCR expression / W41270_DB81_seg11 normalized qRT-PCR expression (tumor necrosis factor receptor superfamily, member 12a transcript) / W64472_DB81_seg2 normalized qRT-PCR expression (Interferon stimulated exonuclease 20 (ISG20) transcript) / W83813_DB81_seg27 normalized qRT-PCR expression: un-labeled samples, kidney of individual male/female rats
Excerpt: New primers were designed for part of the transcripts, and new conditions for several qRT-PCR reactions were used, as described below.
The measurements were normalized in two steps. First—according to the house-keeping-genes normalization factor, and second—each plate was normalized according to ratio of the intensity measurements from samples appearing in it and in the shuffled (normalization) plate (Table 25 provides the plates details and the section “Inter-Plate Normalization” provides details of the normalization process). The normalized values were further scaled by a factor, for ease of viewing.
RT was prepared and qRT-PCR performed and analyzed as described hereinabove. qRT-PCR was performed for the four genes comprising the signature of the discovery stage described in Table 13. Two amplicons were tested for each gene—one representing the wild-type transcript, and another representing an alternative splice variant. Each amplicon was measured using the labeled samples described in Table 9 herein, as well as the un-labeled samples. Samples from both groups (labeled and un-labeled) were tested in seven 96 well plates as described in Table 25. In order to correct possible run to run variations, the following controls were added: 1. several samples were repeated in all 96 wells plates; 2. control shuffled plate was designed which combined samples from all seven test plates.
To account for possible differences of qRT-PCR measurements between the different plates due to experimental artifacts, a normalization plate was planned. This plate, designated hereinabove ‘shuffled plate’, contained samples from all other plates. Real Time PCR was performed on this plate using the primers appropriate for all candidates in tables 26 and 27. For each other plate (plates 1-7 above) and each amplicon, the samples appearing also in the shuffled plate were examined—the ratio between the transcript abundance as measured in the plate to the abundance as measured in the shuffled plate was calculated, outliers were manually removed, and the geometric mean of the left ratios was taken as an additional multiplicative normalization factor for the plate and amplicon.

kidney = assay: Renal histopathology of rats treated with T1, T2, T3; type: in vivo, rat; conditions: rats
Description: Each group consisted of 6 male and 6 female rats. The additional groups consisted of 6 males and 6 female rats treated with control compound for a single day and for five days, as described in Table 24.
T2 “no observed effect level” (NOEL, i.e., the maximal dose at which no toxic effect is visible) is 15 mg/kg.
At autopsy, both kidneys of each animal were removed and each kidney was cross sectioned. Half of each kidney was sent to RNA extraction and analysis.

[2] = Ds1, Day1, oral gavage, female rat kidney
[3] = Ds1, Day1, oral gavage, male rat kidney
[4] = Ds1, Day5, oral gavage, female rat kidney
[5] = Ds1, Day5, oral gavage, male rat kidney
[6] = Ds2, Day1, oral gavage, female rat kidney
[7] = Ds2, Day1, oral gavage, male rat kidney
[8] = Ds2, Day5, oral gavage, female rat kidney
[9] = Ds2, Day5, oral gavage, male rat kidney

C#CCN(C)c1nc2ccc(OC(F)(F)F)cc2s1 [T1]
Average 'Toxic' (%) (rat kidney samples; Ds1 Day1 Female): 0% | Average 'Toxic' (%) (rat kidney samples; Ds1 Day1 Male): 17% | Average 'Toxic' (%) (rat kidney samples; Ds1 Day5 Female): 50% | Average 'Toxic' (%) (rat kidney samples; Ds1 Day5 Male): 50% | Average 'Toxic' (%) (rat kidney samples; Ds2 Day1 Female): 0% | Average 'Toxic' (%) (rat kidney samples; Ds2 Day1 Male): 0% | Average 'Toxic' (%) (rat kidney samples; Ds2 Day5 Female): 66.5% | Average 'Toxic' (%) (rat kidney samples; Ds2 Day5 Male): 33% | Toxicity conclusion from classifier calls (rat kidney samples; signatures of Tables 26 and 27, 30% bound): nephrotoxic agents | H31883_DB71_seg13 normalized qRT-PCR result [1, 2]: 0.825 and 0.917 and 1.186 | MUSCYCG1R_DB81_seg19-20 normalized qRT-PCR result [1, 2]: 0.49 and 0.762 and 0.981 | W41270_DB81_seg11 normalized qRT-PCR result [1, 2]: 0.752 and 0.548 and 1.047 | H31883_DB71_seg13 normalized qRT-PCR result [1, 3]: 0.155 and 0.178 and 0.143 and 0.169 and 0.245 | MUSCYCG1R_DB81_seg19-20 normalized qRT-PCR result [1, 3]: 0.574 and 1.13 and 0.805 and 0.4 and 1.416 | W41270_DB81_seg11 normalized qRT-PCR result [1, 3]: 0.778 and 1.501 and 0.981 and 0.439 and 1.502 | H31883_DB71_seg13 normalized qRT-PCR result [1, 4]: 1.511 and 1.328 and 1.593 and 0.893 | MUSCYCG1R_DB81_seg19-20 normalized qRT-PCR result [1, 4]: 1.162 and 1.367 and 1.089 and 0.831 | W41270_DB81_seg11 normalized qRT-PCR result [1, 4]: 0.745 and 0.945 and 0.938 and 0.606 | H31883_DB71_seg13 normalized qRT-PCR result [1, 5]: 0.125 and 0.208 and 0.165 and 0.207 and 0.2 and 0.323 | MUSCYCG1R_DB81_seg19-20 normalized qRT-PCR result [1, 5]: 2.031 and 0.904 and 0.937 and 0.783 and 1.364 and 0.717 | W41270_DB81_seg11 normalized qRT-PCR result [1, 5]: 1.835 and 0.991 and 0.687 and 0.902 and 1.35 and 0.684 | H31883_DB71_seg13 normalized qRT-PCR result [1, 6]: 0.861 and 0.549 and 0.725 and 1.045 | MUSCYCG1R_DB81_seg19-20 normalized qRT-PCR result [1, 6]: 1.067 and 0.514 and 0.639 and 0.965 | W41270_DB81_seg11 normalized qRT-PCR result [1, 6]: 0.898 and 0.415 and 0.502 and 1.028 | H31883_DB71_seg13 normalized qRT-PCR result [1, 7]: 0.889 and 0.656 and 0.473 | MUSCYCG1R_DB81_seg19-20 normalized qRT-PCR result [1, 7]: 0.932 and 0.544 and 0.541 | W41270_DB81_seg11 normalized qRT-PCR result [1, 7]: 1.326 and 0.785 and 0.592 | H31883_DB71_seg13 normalized qRT-PCR result [1, 8]: 1.025 and 0.454 and 1.074 and 1.674 | MUSCYCG1R_DB81_seg19-20 normalized qRT-PCR result [1, 8]: 0.935 and 1.478 and 0.868 and 1.487 | W41270_DB81_seg11 normalized qRT-PCR result [1, 8]: 0.989 and 1.223 and 0.652 and 1.056 | H31883_DB71_seg13 normalized qRT-PCR result [1, 9]: 0.654 and 1.077 and 1.236 and 0.596 | MUSCYCG1R_DB81_seg19-20 normalized qRT-PCR result [1, 9]: 0.539 and 1.161 and 1.793 and 0.73 | W41270_DB81_seg11 normalized qRT-PCR result [1, 9]: 0.527 and 1.181 and 2.203 and 0.784 | AI045075_DB71_seg6 normalized qRT-PCR expression (Interferon stimulated exonuclease 20 (ISG20) transcript) ([1]; dose Ds1, Day1, oral gavage): 0.843 and 0.636 and 0.572 | H31883_DB71_seg13 normalized qRT-PCR expression (Cyclin-G1 (CCNG1) transcript) ([1]; dose Ds1, Day1, oral gavage): 0.913 and 0.757 and 0.615 and 0.73 and 0.524 and 0.783 and 0.912 and 0.87 and 0.957 and 0.923 and 0.706 | MUSCYCG1R_DB81_seg19-20 normalized qRT-PCR expression ([1]; dose Ds1, Day1, oral gavage): 1.49 and 0.291 and 0.271 and 0.376 and 0.135 and 1.436 and 1.195 and 0.249 and 1.891 and 0.299 and 2.31 | W41270_DB81_seg11 normalized qRT-PCR expression (tumor necrosis factor receptor superfamily, member 12a transcript) ([1]; dose Ds1, Day1, oral gavage): 0.66 and 0.181 and 0.396 and 0.198 and 0.231 and 0.758 and 0.646 and 0.47 and 1.082 and 0.734 and 0.566 | W64472_DB81_seg2 normalized qRT-PCR expression (Interferon stimulated exonuclease 20 (ISG20) transcript) ([1]; dose Ds1, Day1, oral gavage): 1.118 and 0.683 and 0.49 | W83813_DB81_seg27 normalized qRT-PCR expression ([1]; dose Ds1, Day1, oral gavage): 0.216 and 0.843 and 0.926 | AI045075_DB71_seg6 normalized qRT-PCR expression (Interferon stimulated exonuclease 20 (ISG20) transcript) ([1]; dose Ds1, Day5, oral gavage): 0.692 and 0.627 | H31883_DB71_seg13 normalized qRT-PCR expression (Cyclin-G1 (CCNG1) transcript) ([1]; dose Ds1, Day5, oral gavage): 1.373 and 1.353 and 1.266 and 1.783 and 1.477 and 1.097 and 2.104 and 1.249 and 1.458 and 1.23 and 1.01 and 1.013 | MUSCYCG1R_DB81_seg19-20 normalized qRT-PCR expression ([1]; dose Ds1, Day5, oral gavage): 1.598 and 0.183 and 0.149 and 0.214 and 3.532 and 0.296 and 3.397 and 0.186 and 1.317 and 0.189 and 0.816 and 1.499 | W41270_DB81_seg11 normalized qRT-PCR expression (tumor necrosis factor receptor superfamily, member 12a transcript) ([1]; dose Ds1, Day5, oral gavage): 1.527 and 0.473 and 0.702 and 0.356 and 1.325 and 0.657 (2×) and 1.014 and 1.11 and 1.337 and 0.638 and 0.703 | W64472_DB81_seg2 normalized qRT-PCR expression (Interferon stimulated exonuclease 20 (ISG20) transcript) ([1]; dose Ds1, Day5, oral gavage): 0.571 and 0.528 | W83813_DB81_seg27 normalized qRT-PCR expression ([1]; dose Ds1, Day5, oral gavage): 0.795 and 0.885 | AI045075_DB71_seg6 normalized qRT-PCR expression (Interferon stimulated exonuclease 20 (ISG20) transcript) ([1]; dose Ds2, Day1, oral gavage): 0.483 and 0.759 and 0.448 and 0.547 and 0.396 | H31883_DB71_seg13 normalized qRT-PCR expression (Cyclin-G1 (CCNG1) transcript) ([1]; dose Ds2, Day1, oral gavage): 0.517 (2×) and 0.906 and 0.849 and 0.696 and 0.611 and 0.707 and 0.867 and 1.153 and 1.19 and 0.623 and 0.798 | MUSCYCG1R_DB81_seg19-20 normalized qRT-PCR expression ([1]; dose Ds2, Day1, oral gavage): 0.385 and 0.76 and 0.739 and 0.478 and 0.738 and 0.652 and 0.654 and 1.261 and 0.609 and 0.835 and 0.696 and 0.804 | W41270_DB81_seg11 normalized qRT-PCR expression (tumor necrosis factor receptor superfamily, member 12a transcript) ([1]; dose Ds2, Day1, oral gavage): 0.78 and 0.755 and 0.885 and 0.462 and 0.413 and 0.762 and 0.644 and 1.034 and 1.265 and 0.653 and 0.383 and 0.472 | W64472_DB81_seg2 normalized qRT-PCR expression (Interferon stimulated exonuclease 20 (ISG20) transcript) ([1]; dose Ds2, Day1, oral gavage): 0.944 and 1.213 and 0.661 and 0.559 and 0.462 | W83813_DB81_seg27 normalized qRT-PCR expression ([1]; dose Ds2, Day1, oral gavage): 1.186 and 0.984 and 0.34 and 0.689 and 0.56 | AI045075_DB71_seg6 normalized qRT-PCR expression (Interferon stimulated exonuclease 20 (ISG20) transcript) ([1]; dose Ds2, Day5, oral gavage): 0.797 and 0.766 and 1.01 and 0.629 | H31883_DB71_seg13 normalized qRT-PCR expression (Cyclin-G1 (CCNG1) transcript) ([1]; dose Ds2, Day5, oral gavage): 1.36 and 1.037 and 1.84 and 1.348 and 2.423 and 1.13 and 2.468 and 1.684 and 1.672 and 1.663 and 1.554 and 0.996 | MUSCYCG1R_DB81_seg19-20 normalized qRT-PCR expression ([1]; dose Ds2, Day5, oral gavage): 0.359 and 0.871 and 0.852 and 0.761 and 1.197 and 0.631 and 1.238 and 0.528 and 1.583 and 1.018 and 0.919 and 0.756 | W41270_DB81_seg11 normalized qRT-PCR expression (tumor necrosis factor receptor superfamily, member 12a transcript) ([1]; dose Ds2, Day5, oral gavage): 0.009 and 0.391 and 0.964 and 0.713 and 1.825 and 0.453 and 1.254 and 1.111 and 1.126 and 1.164 and 1 and 0.71 | W64472_DB81_seg2 normalized qRT-PCR expression (Interferon stimulated exonuclease 20 (ISG20) transcript) ([1]; dose Ds2, Day5, oral gavage): 0.803 and 0.863 and 0.982 and 0.554 | W83813_DB81_seg27 normalized qRT-PCR expression ([1]; dose Ds2, Day5, oral gavage): 1.092 and 1.125 and 0.885 and 0.55 | Time after which visible pathological damage was seen (kidney): 28 days | Renal damage (kidney; dose and duration as in the value): renal damage, mainly in females, after 28 days of treatment at the 30 mg/kg dose
